The values below come from patent US9029078B2, “Perfusion and/or preservation solution for organs” (Philadelphia College of Osteopathic Medicine, priority 2005, dated 2015).

The test system of one test is rat aortic endothelium. Kind of test: Measurement of NO release from rat aortic segments. Conditions: for Increase in NO release above basal: basal 1.85±0.18. From the text: FIG. 5. Measurement of NO release from rat aortic segments. […] All values are expressed as means± SEM. Numbers at bottom of bars are numbers of separate experiments per group. *p<0.05, **p<0.01, from basal values. FIG. 10. Measurement of NO release from rat aortic segments. […] All values are expressed as means± SEM. Numbers at bottom of bars are numbers of separate experiments per group. *p<0.05, **p<0.01, from basal values. FIG. 17. Measurement of NO release from rat aortic segments. […] All values are expressed as means± SEM. Numbers at bottom of bars are numbers of separate experiments per group. **p<0.01, from basal values. PMN adherence to coronary vascular endothelium was also evaluated within the assessment of total intravascular and infiltrated PMNs. […] NO release from rat aortic endothelium was measured to determine if PKC ζ peptide inhibitor provides cardioprotection by a mechanism involving increased endothelial NO release. […] The eNOS inhibitor, L-NAME, was used as another control in order to decrease basal release of NO to zero.

Test [1] relates to isolated perfused rat hearts (I/R+PMNs). In words: Isolated perfused rat heart, 20 min ischemia / 45 min reperfusion with PMNs: cardiac contractile function (LVDP, +dP/dtmax, LVEDP). Conditions: for LVDP of initial baseline (initial depression): 15 min into reperfusion; for PMN-induced contractile dysfunction / decrease in +dP/dt max (in words): final +dP/dt max after reperfusion; for PMN-induced contractile dysfunction / decrease in +dP/dt max (in words) / PMN-induced contractile dysfunction / decrease in LVDP (in words): vs I/R+PMNs; for PMN-induced contractile dysfunction / decrease in LVDP (in words): final LVDP, 45 min post reperfusion. The procedure: (§1) Data were recorded every 5 min for 45 min post-reperfusion. After each experiment, the left ventricle was isolated, fixed in 4% paraformaldehyde and stored at 4° C. for later histological analysis.

A further test has as its system fMLP-stimulated rat PMNs. In words: Superoxide release from fMLP-stimulated rat PMNs. The format is cell-based. The note with it: for Superoxide release (absorbance): fMLP-stimulated PMNs alone 0.13±0.01. The procedure: FIG. 11. Superoxide release from rat PMNs. Superoxide release was measured from 5×10^6 PMNs after formyl-methionyl-leucyl-phenylalanine (fMLP) (200 nM) stimulation. SOD (10 μg/ml) was employed as a positive control. The change in absorbance (Δ) was measured 90 sec after fMLP addition (peak response). […] All values are means± SEM. Numbers at bottom of bars are numbers of separate experiments per group.

The subject of test [2] is PMN infiltration into the myocardium of isolated perfused rat hearts. Kind of test: Histological assessment of total intravascular and infiltrated PMNs in post-reperfusion cardiac tissue. The note with it: I/R+PMN hearts. The method, then: FIG. 4a. Histological assessment of total intravascular and infiltrated PMNs in isolated perfused rat heart samples taken from 3 rats per group and 10 areas per heart. […] Hatched boxes represent non-PMN perfused hearts and black boxes represent PMN-perfused hearts. **P<0.01, from I/R+PMNs.
as §1
The cardiac injury associated with I/R in this model was closely correlated with the substantial number of PMNs infiltrating the myocardium within the 45 min reperfusion period. During reperfusion, a significant number of PMNs transmigrated into the myocardium, increasing from less than 25 PMN/mm^2 in Sham I/R hearts to more than 180 PMN/mm^2 in I/R+PMN hearts at the end of the reperfusion period (FIG. 4a).

The subject of another test is PMA-stimulated rat PMNs. In words: Superoxide release from PMA-stimulated rat PMNs. Conditions: for Superoxide release (absorbance): PMA-stimulated PMNs alone 0.49±0.03. The format is cell-based. The procedure:
FIG. 6. Superoxide release from rat PMNs. Superoxide release was measured from 5×10^6 PMNs after phorbol-12-myristate-13-acetate (PMA) (15 nM) stimulation. Superoxide dismutase (SOD) (10 μg/ml) was employed as a positive control. The change in absorbance (Δ) was measured 360 sec after PMA addition (peak response). […] All values are means± SEM. Numbers at bottom of bars show the numbers of separate experiments per group.
FIG. 18. Superoxide release from rat PMNs. Superoxide release was measured from 5×10^6 PMNs after PMA (15 nM) stimulation. SOD (10 μg/ml) was employed as a positive control. The change in absorbance (Δ) was measured 360 sec after PMA addition (peak response). […] All values are means± SEM. Numbers at bottom of bars show the numbers of separate experiments per group.
FIG. 22. Superoxide release from rat PMNs. Superoxide release was measured from 5×10^6 PMNs after PMA (15 nM) stimulation. The change in absorbance (Δ) was measured 360 sec after PMA addition (peak response). […] All values are means± SEM. Numbers at bottom of bars show the numbers of separate experiments per group.

In test [3] the test system is PMN adherence to coronary vascular endothelium. Kind of test: Histological assessment of intravascular PMNs adhering to the coronary vasculature. The arrangement: species or system rat. The procedure:
FIG. 4b. Histological assessment of intravascular PMNs that adhered to the coronary vasculature in isolated perfused rat heart samples taken from 3 rats per group
and 10 areas per heart. […] Hatched boxes represent non-PMN perfused hearts and black boxes represent PMN-perfused hearts. All values are mean numbers of PMNs/mm^2 of heart area± SEM.
PMN adherence to coronary vascular endothelium was also evaluated within the assessment of total intravascular and infiltrated PMNs. […] NO release from rat aortic endothelium was measured to determine if PKC ζ peptide inhibitor provides cardioprotection by a mechanism involving increased endothelial NO release. […] The eNOS inhibitor, L-NAME, was used as another control in order to decrease basal release of NO to zero.

Where [4] appears, read: I/R+PMN hearts, 1 μM, 45 min post-reperfusion.
Where [5] appears, read: I/R+PMN hearts, 5 μM, 45 min post-reperfusion.
The mark [6] stands for this setting: I/R+PMN hearts, 10 μM + L-NAME 50 μM, 45 min post-reperfusion.
Where [7] appears, read: I/R+PMN hearts, 10 μM, 45 min post-reperfusion.

Entries after “also recorded” stand apart in the source; their conditions may differ. Where no end group is shown, it is not given here.

As to `CC(=O)OCC[N+](C)(C)C` [Acetylcholine, reference compound], in the test with rat aortic endothelium (200 nM (positive control)), the “Increase in NO release compared to basal NO release” value worked out at 67±4%. Further, the “Increase in NO release above basal” value in the test with rat aortic endothelium (500 nM (positive control)) is 3.75±0.58 pmoles NO/mg tissue.

For the molecule “PKC βII peptide inhibitor: peptide inhibitor of protein kinase C beta II; preferred sequence SEQ ID NO: 1, preferably myristoylated (SLNPEWNET; not fully specified; listed as Homo sapiens)”, the “LVDP of I/R+PMN group compared to treated I/R+PMN group (time course)” value in test [1] (10 μM, reperfusion 0 to 45 min) was “significant and sustained reduction”. The “+dP/dtmax recovered to, of initial baseline” value in test [1] (setting [4]) came out at 53±6%; in test [1] (setting [5]), 63±7%; in test [1] (setting [7]), 79±10%. The “LVDP recovered to, of initial baseline” value in test [1] (setting [4]) came to 57±4%; in test [1] (setting [5]) it was 69±7%; in test [1] (setting [7]), 82±9%. For the same molecule, the “+dP/dtmax of initial baseline” value in test [1] (setting [6]) was determined as 53±5%. Moreover, the “LVDP of initial baseline” value in test [1] (setting [6]) came to 56±2%. The “LVDP of initial baseline (initial depression)” value in test [1] (I/R+PMN hearts, 10 μM) came to 61±10%. Further, the “Protective effect on +dP/dt max in the presence of L-NAME (in words)” value in test [1] (I/R+PMN hearts, with L-NAME) is “blocked”. Moreover, in test [1] (I/R+PMN hearts, with L-NAME), the “Protective effect on LVDP in the presence of L-NAME (in words)” value is “significantly blocked”. In addition, the “PMN-induced contractile dysfunction / decrease in +dP/dt max (in words)” value in test [1] is reported as “attenuated”. Besides, in test [1], the “PMN-induced contractile dysfunction / decrease in LVDP (in words)” value is recorded as “attenuated”. Further, the “Endothelial NO release vs basal NO release (in words)” value in the test with rat aortic endothelium is “significantly increased; also recorded: significantly more NO”. In addition, the “Increase in NO release above basal” value is 0.75±0.19 pmoles NO/mg tissue with rat aortic endothelium (1 μM), 1.91±0.44 pmoles NO/mg tissue in the test on rat aortic endothelium (2.5 μM), 2.54±0.29 pmoles NO/mg tissue with rat aortic endothelium (5 μM) and 3.49±0.62 pmoles NO/mg tissue with rat aortic endothelium (10 μM). Besides, the “Induced production of NO after treating the endothelium with L-NAME” value in the test on rat aortic endothelium (L-NAME 400 μM) is given as “completely inhibited”. The “Inhibition of superoxide (in words)” value in the test on fMLP-stimulated rat PMNs (1 μM) is “no significant inhibition”. Also, the “Superoxide release (absorbance)” value with fMLP-stimulated rat PMNs (5 μM) was 0.05±0.009; in the test with fMLP-stimulated rat PMNs (10 μM), 0.02±0.004; with fMLP-stimulated rat PMNs (20 μM) it was 0.02±0.007. For the same molecule, the “Superoxide release after fMLP (200 nM) stimulation (in words)” value with fMLP-stimulated rat PMNs (5, 10 and 20 μM, 90 sec after fMLP) is recorded as “significantly inhibited”.

For the molecule “PKC δ peptide activator: peptide activator of protein kinase C delta; preferred sequence SEQ ID NO: 3, preferably myristoylated (MRAAEDPM; not fully specified; listed as Homo sapiens)”, the “Total intravascular and infiltrated PMNs vs I/R+PMNs (in words)” value in test [2] is recorded as “attenuated”. Further, in test [1] (10 μM, reperfusion 0 to 45 min), the “LVDP of I/R+PMN group compared to treated I/R+PMN group (time course)” value was “significant and sustained reduction”; the “LVEDP of I/R+PMN group compared to treated I/R+PMN group (time course)” value is “significant and sustained elevation”. For the same molecule, in test [1] (setting [4]), the “+dP/dtmax recovered to, of initial baseline” value is given as 51±5% and the “LVDP recovered to, of initial baseline” value was 60±13%. In test [1] (setting [5]), the “+dP/dtmax recovered to, of initial baseline” value is listed as 67±7% and the “LVDP recovered to, of initial baseline” value was 80±9%. In test [1] (I/R+PMN hearts, 10 μM), the “LVDP of initial baseline (initial depression)” value was determined as 58±8%. In test [1] (setting [7]), the “+dP/dtmax recovered to, of initial baseline” value was determined as 79±5% and the “LVDP recovered to, of initial baseline” value was 83±3%. Besides, in test [1], the “PMN-induced contractile dysfunction / decrease in +dP/dt max (in words)” value is recorded as “attenuated” and the “PMN-induced contractile dysfunction / decrease in LVDP (in words)” value is reported as “attenuated”. For the same molecule, in the test on PMA-stimulated rat PMNs (1 μM), the “Superoxide release vs PMA-stimulated rat PMNs (in words)” value was “no significant inhibition”. In addition, in the test on PMA-stimulated rat PMNs (5 μM), the “Superoxide release (absorbance)” value stood at 0.32±0.03. For the same molecule, the “Superoxide release (absorbance)” value in the test on PMA-stimulated rat PMNs (10 μM) stood at 0.32±0.02. Also, the “Superoxide release after PMA (15 nM) stimulation (in words)” value in the test with PMA-stimulated rat PMNs (360 sec after PMA) is reported as “significantly inhibited”. Also, the “PMNs adhering to the coronary vasculature vs I/R+PMN hearts (in words)” value in test [3] is given as “attenuated”.
